The target in test [1] is T1, NA transporter (Rattus norvegicus, UniProt Q9WTR4).
T1 construct: synaptosomes from rat brain regions were freshly isolated; from tissue; host or cells: P2 synaptosome fraction from hypothalamus of male rat brain
The test can be described thus: Noradrenalin uptake inhibition (NA-uptake) in synaptosomes. The test is classed as biochemical. To be noted: rat hypothalamus synaptosomes. The text has this: Tests on Noradrenalin Uptake Inhibition (NA-Uptake Inhibition)
In order to be able to carry out these in vitro studies, synaptosomes from rat brain regions were freshly isolated.

For test [2], the target named is T2, 5HT-uptake (Rattus norvegicus, UniProt P31652).
T2 construct: synaptosomes from rat brain regions were freshly isolated; from tissue; host or cells: P2 synaptosome fraction from rat brain regions
The test can be described thus: Serotonin uptake inhibition (5HT uptake) in synaptosomes. The test is classed as biochemical. The following applies: rat brain synaptosomes.

SMILES strings stand for the structures.

As usually defined, the inhibition is the share of the control response that was lost under treatment. Low values mean little suppression, high ones strong suppression.

T2 sequence (P31652 whole entry): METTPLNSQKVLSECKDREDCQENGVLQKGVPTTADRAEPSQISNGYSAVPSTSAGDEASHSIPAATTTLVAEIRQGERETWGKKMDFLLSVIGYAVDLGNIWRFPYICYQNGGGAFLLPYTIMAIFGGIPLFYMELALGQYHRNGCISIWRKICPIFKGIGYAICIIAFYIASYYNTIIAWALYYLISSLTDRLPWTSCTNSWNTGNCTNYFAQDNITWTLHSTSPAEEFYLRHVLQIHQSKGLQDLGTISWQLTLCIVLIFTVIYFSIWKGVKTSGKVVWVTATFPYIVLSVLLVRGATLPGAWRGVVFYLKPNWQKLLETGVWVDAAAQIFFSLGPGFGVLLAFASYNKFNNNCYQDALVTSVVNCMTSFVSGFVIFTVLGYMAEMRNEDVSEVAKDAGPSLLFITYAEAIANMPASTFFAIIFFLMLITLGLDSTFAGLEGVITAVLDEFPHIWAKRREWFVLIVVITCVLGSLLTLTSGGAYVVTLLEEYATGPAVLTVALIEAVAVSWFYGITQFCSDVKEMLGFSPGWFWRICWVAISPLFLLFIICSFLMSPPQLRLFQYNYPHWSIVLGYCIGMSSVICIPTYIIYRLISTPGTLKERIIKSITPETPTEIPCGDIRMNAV
T1 sequence (Q9WTR4 1-597): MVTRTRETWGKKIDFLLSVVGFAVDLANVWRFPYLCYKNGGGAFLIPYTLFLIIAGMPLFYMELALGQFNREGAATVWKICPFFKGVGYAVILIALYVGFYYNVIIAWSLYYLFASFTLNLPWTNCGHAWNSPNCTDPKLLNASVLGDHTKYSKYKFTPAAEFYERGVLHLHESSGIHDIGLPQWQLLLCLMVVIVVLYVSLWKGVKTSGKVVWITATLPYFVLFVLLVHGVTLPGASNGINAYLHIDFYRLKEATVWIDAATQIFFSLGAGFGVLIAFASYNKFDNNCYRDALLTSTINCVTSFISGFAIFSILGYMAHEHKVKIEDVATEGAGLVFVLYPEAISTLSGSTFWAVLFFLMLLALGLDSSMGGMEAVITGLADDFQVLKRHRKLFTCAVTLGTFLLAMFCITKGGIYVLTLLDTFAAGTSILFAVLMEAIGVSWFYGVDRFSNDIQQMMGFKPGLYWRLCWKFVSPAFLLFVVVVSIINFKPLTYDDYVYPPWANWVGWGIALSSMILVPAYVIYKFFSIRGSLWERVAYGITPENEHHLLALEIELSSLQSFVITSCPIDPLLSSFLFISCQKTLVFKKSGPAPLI

Turning to `Cc1ccc(S(=O)(=O)N2CCC3(CC2)CC(C(=O)NC2CCCC2OCc2ccccc2)=NO3)cc1` (centres unmarked) [Example 73, 8-(toluene-4-sulphonyl)-1-oxa-2,8-diaza-spiro[4,5]dec-2-ene-3-carboxylic acid (2-benzyloxy-cyclopentyl)-amide], the “NA-uptake, 10 μM, % inhibition” value in test [1] (10 µM) is reported as 93%. Besides, the “5HT-uptake, 10 μM, % inhibition” value in test [2] (10 µM) turned out to be 46%. Consider `CN(C)S(=O)(=O)N1CCC2(CC1)CC(C(=O)N1CCN(Cc3ccc4ccccc4c3)CC1)=NO2` [Example 65, 3-(4-naphthalen-2-ylmethyl-piperazine-1-carbonyl)-1-oxa-2,8-diaza-spiro[4,5]dec-2-ene-8-sulphonic acid dimethylamide], for which the inhibition at 10 µM in test [1] stood at 63%; in test [2], 81%. Turning to `O=C(C1=NOC2(CCN(S(=O)(=O)Cc3ccccc3)CC2)C1)N1CCN(CCCc2ccccc2)CC1` [Example 69], the “NA-uptake, 10 μM, % inhibition” value in test [1] is on record as 56%. The “5HT-uptake, 10 μM, % inhibition” value in test [2] worked out at 63%.

On to `Cc1cc(C(=O)N2CCC3(CC2)CC(C(=O)NCc2ccncc2)=NO3)ccc1Br` [Example 130, 8-(4-bromo-3-methyl-benzoyl)-1-oxa-2,8-diaza-spiro[4,5]dec-2-ene-3-carboxylic acid (pyridin-4-ylmethyl)-amide], for which the figures for the inhibition at 10 µM in test [1] and in test [2] were 61% and 64%, respectively. Regarding `O=C(NCCc1ccc(Cl)c(Cl)c1)C1=NOC2(CCN(S(=O)(=O)c3ccc(OC(F)(F)F)cc3)CC2)C1` [Example 165], in test [1], the “NA-uptake, 10 μM, % inhibition” value is listed as 55%. The “5HT-uptake, 10 μM, % inhibition” value in test [2] was 41%. `CC1CCCCN1CCCNC(=O)C1=NOC2(CCN(S(=O)(=O)c3cc(Cl)ccc3Cl)CC2)C1` (centres unmarked) [Example 15, 8-(2,5-dichloro-benzenesulphonyl)-1-oxa-2,8-diaza-spiro[4,5]dec-2-ene-3-carboxylic acid[3-(2-methyl-piperidin-1-yl)-propyl]-amide]: the “NA-uptake, 10 μM, % inhibition” value in test [1] is given as 41%. Besides, in test [2], the “5HT-uptake, 10 μM, % inhibition” value was found to be 55%.

As to `Cc1ccc(S(=O)(=O)N2CCC3(CC2)CC(C(=O)N2CCN(c4ccc(C)cc4C)CC2)=NO3)cc1` [Example 33, [4-(2,4-dimethyl-phenyl)-piperazin-l-yl]-[8-(toluene-4-sulphonyl)-1-oxa-2,8-diazaspiro[4,5]dec-2-en-3-yl]methanone], the “NA-uptake, 10 μM, % inhibition” value in test [1] stood at 42%. Besides, the “5HT-uptake, 10 μM, % inhibition” value in test [2] amounted to 57%. For the compound `O=C(NC1CCCC1)C1=NOC2(CCN(C(=O)c3ccc([N+](=O)[O-])cc3Cl)CC2)C1` [Example 5, 8-(2-chloro-4-nitro-benzoyl)-1-oxa-2,8-diaza-spiro[4,5]dec-2-ene-3-carboxylic acid cyclopentylamide], the inhibition at 10 µM was determined as 53% in test [1] and 59% in test [2].

Consider `Cc1ccc(S(=O)(=O)N2CCC3(CC2)CC(C(=O)NCCc2ccc(Cl)c(Cl)c2)=NO3)cc1` [Example 9], for which, in test [1], the “NA-uptake, 10 μM, % inhibition” value was found to be 77%. Also, the “5HT-uptake, 10 μM, % inhibition” value in test [2] turned out to be 75%. On to `COc1ccc(S(=O)(=O)N2CCC3(CC2)CC(C(=O)NC(C)Cc2ccc(Cl)cc2)=NO3)cc1` (centres unmarked) [Example 164, 8-(4-methoxy-benzenesulphonyl)-1-oxa-2,8-diaza-spiro[4,5]dec-2-ene-3-carboxylic acid [2-(4-chloro-phenyl)-1-methyl-ethyl]-amide], for which the inhibition at 10 µM in test [1] stood at 80%; in test [2], 54%. In the case of `O=C(C1=NOC2(CCN(S(=O)(=O)c3cccs3)CC2)C1)N1CCN(C2CCCCCC2)CC1` [Example 3, (4-cycloheptyl-piperazin-l-yl)-[8-(thiophene-2-sulphonyl)-1-oxa-2,8-diaza-spiro [4,5]dec-2-en-3-yl]-methanone], the “NA-uptake, 10 μM, % inhibition” value in test [1] came to 59%. In test [2], the “5HT-uptake, 10 μM, % inhibition” value is reported as 51%. Taken in the same sequence, the figures for `Cc1cccc(N2CCN(C(=O)C3=NOC4(CCN(S(=O)(=O)c5cccs5)CC4)C3)CC2C)c1` (stereo not drawn) [Example 31, (3-methyl-4-m-tolyl-piperazin-l-yl)-[8-(thiophene-2-sulphonyl)-1-oxa-2,8-diaza-spiro[4,5]dec-2-en-3-yl]-methanone] were 66% and 69%. Turning to `O=C(NC1CCN(Cc2ccc3ccccc3c2)C1)C1=NOC2(CCN(S(=O)(=O)c3ccc(Cl)s3)CC2)C1` (centres unmarked) [Example 50, 8-(5-chloro-thiophene-2-sulphonyl)-1-oxa-2,8-diaza-spiro[4,5]dec-2-ene-3 carboxylic acid (1-naphthalen-2-ylmethyl-pyrrolidin-3-yl)-amide], the inhibition at 10 µM in test [1] turned out to be 50%; in test [2] it was 57%. Taken in the same sequence, the figures for `O=C(C1=NOC2(CCN(S(=O)(=O)c3ccc(Cl)s3)CC2)C1)N1CCN(c2ccccc2)CC1` [Example 4, [8-(5-chloro-thiophene-2-sulphonyl)-1-oxa-2,8-diaza-spiro[4,5]dec-2-en-3-yl]-(4-phenyl-piperazin-1-yl)-methanone] were 45% and 54%. Turning to `COc1ccc(S(=O)(=O)N2CCC3(CC2)CC(C(=O)NCCc2ccccc2F)=NO3)cc1` [Example 104], the “NA-uptake, 10 μM, % inhibition” value in test [1] is given as 49%. Further, the “5HT-uptake, 10 μM, % inhibition” value in test [2] turned out to be 41%. For `O=C(NCc1cccs1)C1=NOC2(CCN(S(=O)(=O)c3ccccc3Cl)CC2)C1` [Example 156, 8-(2-chloro-benzenesulphonyl)-1-oxa-2,8-diaza-spiro[4,5]dec-2-ene-3-carboxylic acid (thiophen-2-ylmethyl)-amide], the figures for the inhibition at 10 µM in test [1] and in test [2] were 60% and 41%, respectively. With `CC(NC(=O)C1=NOC2(CCN(S(=O)(=O)c3cccs3)CC2)C1)c1cccc2c1OCCO2` (centres unmarked) [Example 84, 8-(thiophene-2-sulphonyl)-1-oxa-2,8-diaza-spiro[4,5]dec-2-ene-3-carboxylic acid [1-(2,3-dihydro-benzo[1,4]dioxin-5-yl)-ethyl]-amide], the values for the inhibition at 10 µM in test [1] and in test [2] were 67% and 68%, respectively. For `CC(NC(=O)C1=NOC2(CCN(S(=O)(=O)c3cc(Cl)ccc3Cl)CC2)C1)C(=O)Nc1ccc2ccccc2c1` (centres unmarked) [Example 44, 8-(2,5-dichloro-benzenesulphonyl)-1-oxa-2,8-diaza-spiro[4,5]dec-2-ene-3-carboxylic acid [1-(naphthalen-2-ylcarbamoyl)-ethyl]amide] the same measures were 48% and 80%. On to `COc1cccc(CN2CCC(NC(=O)C3=NOC4(CCN(S(=O)(=O)c5cc(Cl)ccc5Cl)CC4)C3)C2)c1` (centres unmarked) [Example 64], for which the “NA-uptake, 10 μM, % inhibition” value in test [1] worked out at 61%. Moreover, the “5HT-uptake, 10 μM, % inhibition” value in test [2] is on record as 61%. As for `Cc1ccc(F)cc1S(=O)(=O)N1CCC2(CC1)CC(C(=O)NCc1cccs1)=NO2` [Example 150, 8-(5-fluoro-2-methyl-benzenesulphonyl)-1-oxa-2,8-diaza-spiro[4,5]dec-2-ene-3-carboxylic acid (thiophen-2-ylmethyl)-amide], the inhibition at 10 µM in test [1] came to 48%; in test [2], 70%. In the case of `O=C(C1=NOC2(CCN(S(=O)(=O)c3cc(Cl)ccc3Cl)CC2)C1)N1CCN(c2ncnc3sccc23)CC1` [Example 29], the “5HT-uptake, 10 μM, % inhibition” value in test [2] was 42%. `O=C(NCc1cc(F)cc(C(F)(F)F)c1)C1=NOC2(CCN(S(=O)(=O)c3cc(Cl)ccc3Cl)CC2)C1` [Example 39, 8-(2,5-dichloro-benzenesulphonyl)-1-oxa-2,8-diaza-spiro[4,5]dec-2-ene-3-carboxylic acid 3-fluoro-5-trifluoromethyl-benzylamide]: in test [2], the inhibition at 10 µM worked out at 65%.

The compound `CN(C)S(=O)(=O)N1CCC2(CC1)CC(C(=O)NCc1ccc(F)cc1F)=NO2` [Example 77, 8-dimethylsulphamoyl-1-oxa-2,8-diaza-spiro[4,5]dec-2-ene-3-carboxylic acid 2,4-difluorobenzylamide] came in with an inhibition at 10 µM in test [2] of 41%. Same read-out and setting: the figure for `O=C(C1=NOC2(CCN(S(=O)(=O)Cc3ccccc3)CC2)C1)N1CCN(c2ccc(Cl)cc2)CC1` [Example 46, [4-(4-chloro-phenyl)-piperazin-1-yl]-(8-phenylmethane-sulphonyl-1-oxa-2,8-diaza-spiro[4,5]dec-2-en-3-yl)-methanone] is 40%; for `CN(C)S(=O)(=O)N1CCC2(CC1)CC(C(=O)NCc1ccc(C(F)(F)F)c(F)c1)=NO2` [Example 72, 8-dimethylsulphamoyl-1-oxa-2,8-diaza-spiro[4,5]dec-2-ene-3-carboxylic acid 3-fluoro-4-trifluoromethyl-benzylamide] it is 42%. For `CCCC(=O)N1CCC2(CC1)CC(C(=O)NC1CCN(C(=O)OCC)CC1)=NO2` [Example 74, 4-[(8-butyryl-1-oxa-2,8-diaza-spiro[4,5]dec-2-ene-3-carbonyl)-amino]-piperidine-l-carboxylic acid ethyl ester], the “5HT-uptake, 10 μM, % inhibition” value in test [2] is listed as 43%. Turning to `O=C(NCC1CC1)C1=NOC2(CCN(S(=O)(=O)c3cccc(C(F)(F)F)c3)CC2)C1` [Example 94, 8-(3-trifluoromethyl-benzenesulphonyl)-1-oxa-2,8-diaza-spiro[4,5]dec-2-ene-3 carboxylic acid cyclopropylmethyl-amide], the inhibition at 10 µM in test [2] came out at 57%. Still for that read-out and setting: the result for `Cc1ccc(S(=O)(=O)N2CCC3(CC2)CC(C(=O)N2CCN(C(=O)Cc4ccccc4)CC2)=NO3)cc1` [Example 25, 2-phenyl-1-{4-[8-(toluene-4-sulphonyl)-1-oxa-2,8-diaza-spiro[4,5]dec-2-ene-3 carbonyl]-piperazin-1-yl)-ethanone] reads 51%. For `Cc1ccc(C(=O)N2CCC3(CC2)CC(C(=O)NCC2CC2)=NO3)c(F)c1F` [Example 159, 8-(2,3-difluoro-4-methyl-benzoyl)-1-oxa-2,8-diaza-spiro[4,5]dec-2-ene-3-carboxylic acid cyclopropylmethyl-amide], the inhibition at 10 µM in test [2] is 40%.

For `O=C(Cc1ccc(F)c(F)c1)N1CCN(C(=O)C2=NOC3(CCN(S(=O)(=O)c4cccc(C(F)(F)F)c4)CC3)C2)CC1` [Example 93], the “5HT-uptake, 10 μM, % inhibition” value in test [2] came to 42%.

These data come from patent US8557796B2, “Substituted 1-oxa-2,8-diaza-spiro [4,5] dec-2-ene derivatives and related treatment methods” (Gruenenthal GmbH, priority 2001, dated 2013).
